The experiment deals with T1, Human pyruvate kinase R (PKR) (Homo sapiens, UniProt P30613).
T1 construct: Human pyruvate kinase R (PKR), residues 14-574; 6x-His (N, cleaved yes); 8x-Arg (N, cleaved yes); SUMO (N, cleaved yes); host or cells: E. coli
As to the kind of experiment: Biochemical assay for activation of pyruvate kinase R (Kinase-Glo luminescence measurement of ATP generation). Particulars: for AC50: PKR biochemical assay, 0.1 nM PKR, 0.3 mM ADP, 2 mM FBP, 0.1 mM PEP; for Emax: maximal activation level relative to the activation level achieved by the literature compound AG-348 @ 10 μM. In short, it runs like this:
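Recombinant human PKR (residues 14-574), E. coli-expressed with His-Arg-SUMO tag removed, purified by Ni-NTA, anion exchange and size exclusion. Activation measured as ATP generation via Kinase-Glo luminescence.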
A general note: In Kinase-Glo more light means more ATP remaining.

T1 sequence (P30613 14-574): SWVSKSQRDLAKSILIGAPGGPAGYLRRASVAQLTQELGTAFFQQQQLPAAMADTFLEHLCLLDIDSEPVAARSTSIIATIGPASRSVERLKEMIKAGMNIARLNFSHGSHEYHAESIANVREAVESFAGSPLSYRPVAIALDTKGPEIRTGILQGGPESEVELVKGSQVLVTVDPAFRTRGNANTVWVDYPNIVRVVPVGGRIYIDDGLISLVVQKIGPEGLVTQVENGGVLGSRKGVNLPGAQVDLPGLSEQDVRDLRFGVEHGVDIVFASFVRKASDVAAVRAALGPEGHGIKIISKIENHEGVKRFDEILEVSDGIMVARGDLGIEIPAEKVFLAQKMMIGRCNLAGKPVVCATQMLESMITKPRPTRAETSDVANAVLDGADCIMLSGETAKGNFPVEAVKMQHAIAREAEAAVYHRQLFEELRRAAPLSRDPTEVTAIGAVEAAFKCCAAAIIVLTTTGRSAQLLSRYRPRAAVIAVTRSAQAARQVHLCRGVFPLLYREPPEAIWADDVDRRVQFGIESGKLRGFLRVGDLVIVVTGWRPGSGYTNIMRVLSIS

In the case of `COc1ccc(-n2ncnc2CNC(=O)NCc2nc(C)nn2-c2ccc(Cl)c(F)c2)cn1` [Compound 123, 3-{[1-(4-chloro-3-fluorophenyl)-3-methyl-1H-1,2,4-triazol-5-yl]methyl}-1-{[1-(6-methoxypyridin-3-yl)-1H-1,2,4-triazol-5-yl]methyl}urea], the half-maximal activity concentration (AC50) (usually the midpoint of the concentration-response curve, whichever way the signal moves) was found to be 140 nM and the Emax (commonly the size of the effect at its maximum, as opposed to the concentration needed) worked out at 70%.

With `CCN(Cc1ncnn1-c1ccc(OC)nc1)C(=O)NCc1nc(C)nn1-c1ccc(Cl)c(F)c1` [Compound 124, 3-{[1-(4-chloro-3-fluorophenyl)-3-methyl-1H-1,2,4-triazol-5-yl]methyl}-1-ethyl-1-{[1-(6-methoxypyridin-3-yl)-1H-1,2,4-triazol-5-yl]methyl}urea], half-maximal activity (AC50) was put at 270 nM and the Emax amounted to 79%.

On to `Cc1nc(CNC(=O)NCc2ncnn2-c2cc3ccccc3cn2)n(-c2ccc(Cl)c(F)c2)n1` [Compound 125, 1-{[1-(4-chloro-3-fluorophenyl)-3-methyl-1H-1,2,4-triazol-5-yl]methyl}-3-{[1-(isoquinolin-3-yl)-1H-1,2,4-triazol-5-yl]methyl}urea], for which the activity was half-maximal at 3800 nM (AC50) and the maximal effect (Emax) was determined as 81%.

Turning to `Cc1nc(CNC(=O)NCc2ncnn2-c2cnc3ccccc3c2)n(-c2ccc(Cl)c(F)c2)n1` [Compound 126, 1-{[1-(4-chloro-3-fluorophenyl)-3-methyl-1H-1,2,4-triazol-5-yl]methyl}-3-{[1-(quinolin-3-yl)-1H-1,2,4-triazol-5-yl]methyl}urea], the half-maximal activity concentration (AC50) was determined as 67 nM and the Emax was 84%.

Consider `Cc1nc(CNC(=O)NCc2ncnn2-c2ccc3ncncc3c2)n(-c2ccc(Cl)c(F)c2)n1` [Compound 127, 1-{[1-(4-chloro-3-fluorophenyl)-3-methyl-1H-1,2,4-triazol-5-yl]methyl}-3-{[1-(quinazolin-6-yl)-1H-1,2,4-triazol-5-yl]methyl}urea], for which the half-maximal activity concentration (AC50) worked out at 47 nM and the Emax was determined as 45%.

`Cc1nc(CNC(=O)NCc2ncnn2-c2ccn3ccnc3c2)n(-c2ccc(Cl)c(F)c2)n1` [Compound 128, 1-{[1-(4-chloro-3-fluorophenyl)-3-methyl-1H-1,2,4-triazol-5-yl]methyl}-3-[(1-{imidazo[1,2-a]pyridin-7-yl}-1H-1,2,4-triazol-5-yl)methyl]urea] returned an AC50 of 24 nM and a maximal effect (Emax) of 59%.

`Cc1nc(CNC(=O)NCc2ncnn2-c2cccnc2)n(-c2ccc(Cl)c(F)c2)n1` [Compound 129, 1-{[1-(4-chloro-3-fluorophenyl)-3-methyl-1H-1,2,4-triazol-5-yl]methyl}-3-{[1-(pyridin-3-yl)-1H-1,2,4-triazol-5-yl]methyl}urea] registered a half-maximal activity concentration (AC50) of 430 nM and an Emax of 72%.

Take `COc1ccc(-n2ncnc2CNC(=O)NCc2nc(C)nn2-c2ccc(Cl)c(F)c2)nc1` [Compound 130, 1-{[1-(4-chloro-3-fluorophenyl)-3-methyl-1H-1,2,4-triazol-5-yl]methyl}-3-{[1-(5-methoxypyridin-2-yl)-1H-1,2,4-triazol-5-yl]methyl}urea]: the AC50 worked out at 300 nM and the Emax was 84%.

On to `Cc1nc(CNC(=O)NCc2ncnn2-c2ccc(C3CC3)nc2)n(-c2ccc(Cl)c(F)c2)n1` [Compound 131, 1-{[1-(4-chloro-3-fluorophenyl)-3-methyl-1H-1,2,4-triazol-5-yl]methyl}-3-{[1-(6-cyclopropylpyridin-3-yl)-1H-1,2,4-triazol-5-yl]methyl}urea], for which the AC50 was found to be 78 nM and the maximal response (Emax) came out at 94%.

In turn, `Cc1nc(CNC(=O)NCc2ncnn2-c2ccc(C3CCC3)nc2)n(-c2ccc(Cl)c(F)c2)n1` [Compound 132, 1-{[1-(4-chloro-3-fluorophenyl)-3-methyl-1H-1,2,4-triazol-5-yl]methyl}-3-{[1-(6-cyclobutylpyridin-3-yl)-1H-1,2,4-triazol-5-yl]methyl}urea] gave an AC50 of 490 nM and a maximal response (Emax) of 64%.

On to `Cc1nc(CNC(=O)NCc2ncnn2-c2cncc(C3CC3)c2)n(-c2ccc(Cl)c(F)c2)n1` [Compound 133, 1-{[1-(4-chloro-3-fluorophenyl)-3-methyl-1H-1,2,4-triazol-5-yl]methyl}-3-{[1-(5-cyclopropylpyridin-3-yl)-1H-1,2,4-triazol-5-yl]methyl}urea], for which the activity was half-maximal at 160 nM (AC50) and the Emax amounted to 86%.

The molecule `COc1cncc(-n2ncnc2CNC(=O)NCc2nc(C)nn2-c2ccc(Cl)c(F)c2)c1` [Compound 134, 1-{[1-(4-chloro-3-fluorophenyl)-3-methyl-1H-1,2,4-triazol-5-yl]methyl}-3-{[1-(5-methoxypyridin-3-yl)-1H-1,2,4-triazol-5-yl]methyl}urea] registered an AC50 of 170 nM and a maximal response (Emax) of 110%.

On to `Cc1nc(CNC(=O)NCc2ncnn2-c2cnc3cc(F)ccc3c2)n(-c2ccc(Cl)c(F)c2)n1` [Compound 135, 1-{[1-(4-chloro-3-fluorophenyl)-3-methyl-1H-1,2,4-triazol-5-yl]methyl}-3-{[1-(7-fluoroquinolin-3-yl)-1H-1,2,4-triazol-5-yl]methyl}urea], for which half-maximal activity (AC50) was put at 86 nM and the maximal response (Emax) is 117%.

In turn, `Cc1nc(CNC(=O)NCc2ncnn2-c2cnc3c(F)cccc3c2)n(-c2ccc(Cl)c(F)c2)n1` [Compound 136, 3-{[1-(4-chloro-3-fluorophenyl)-3-methyl-1H-1,2,4-triazol-5-yl]methyl}-1-{[1-(8-fluoroquinolin-3-yl)-1H-1,2,4-triazol-5-yl]methyl}urea] had an AC50 of 47 nM and an Emax of 94%.

Molecule `Cc1cncc(-n2ncnc2CNC(=O)NCc2nc(C)nn2-c2ccc(Cl)c(F)c2)c1` [Compound 137, 1-{[1-(4-chloro-3-fluorophenyl)-3-methyl-1H-1,2,4-triazol-5-yl]methyl}-3-{[1-(5-methylpyridin-3-yl)-1H-1,2,4-triazol-5-yl]methyl}urea] yielded a concentration at half-maximal activity (AC50) of 180 nM and an Emax of 99%.

In the case of `Cc1nc(CNC(=O)NCc2nc(C)nn2-c2cnc3ccccc3c2)n(-c2ccc(Cl)c(F)c2)n1` [Compound 138, 1-{[1-(4-chloro-3-fluorophenyl)-3-methyl-1H-1,2,4-triazol-5-yl]methyl}-3-{[3-methyl-1-(quinolin-3-yl)-1H-1,2,4-triazol-5-yl]methyl}urea], the AC50 is 44 nM and the Emax was 129%.

Consider `Cc1nc(CNC(=O)NCc2ncnn2-c2cnc3ccc(F)cc3c2)n(-c2ccc(Cl)c(F)c2)n1` [Compound 139, 1-{[1-(4-chloro-3-fluorophenyl)-3-methyl-1H-1,2,4-triazol-5-yl]methyl}-3-{[1-(6-fluoroquinolin-3-yl)-1H-1,2,4-triazol-5-yl]methyl}urea], for which the AC50 was 61 nM and the Emax turned out to be 96%.

Molecule `Cc1nc(CNC(=O)NCc2ncnn2-c2cnc3cccc(F)c3c2)n(-c2ccc(Cl)c(F)c2)n1` [Compound 140, 1-{[1-(4-chloro-3-fluorophenyl)-3-methyl-1H-1,2,4-triazol-5-yl]methyl}-3-{[1-(5-fluoroquinolin-3-yl)-1H-1,2,4-triazol-5-yl]methyl}urea] gave an AC50 of 25 nM and an Emax of 72%.

`CCc1ccc(-n2ncnc2CNC(=O)NCc2nc(C)nn2-c2ccc(Cl)c(F)c2)cn1` [Compound 141, 1-{[1-(4-chloro-3-fluorophenyl)-3-methyl-1H-1,2,4-triazol-5-yl]methyl}-3-{[1-(6-ethylpyridin-3-yl)-1H-1,2,4-triazol-5-yl]methyl}urea]: half-maximal activity (AC50) was put at 140 nM and the maximum response (Emax) came out at 71%.

These data come from patent US20230278984A1 (Global Blood Therapeutics, Inc., priority 2020, published 2023).
